What is called IC50 is the midpoint of a concentration-inhibition curve. As usually defined, the ED50 is the midpoint of the dose-response relation. Low readings indicate greater potency, high ones weaker potency. In general, inhibition in vivo refers to the percentage by which the read-out fell short of the control. Lower therefore signals a response near the control.

The structures appear in SMILES notation. Where only a bound is given, the exact number is not on record here.

Data on 15 molecules can be found in ChEMBL document CHEMBL1132512, “Substituted heterocyclic analogs as selective COX-2 inhibitors in the flosulide class” (Bioorg Med Chem Lett, 1999).

The subject of one assay is Rattus norvegicus. The assay can be described thus: In vivo antiinflammatory activity expressed as 30% effective dose was evaluated in rat paw edema assay. Type of assay: functional.
For the molecule `CCc1csc(Sc2cc3c(cc2NS(C)(=O)=O)CCC3=O)n1`, the ED30 turned out to be 0.3 mg/kg.

`CS(=O)(=O)Nc1cc2c(cc1Sc1ncc(Cl)cc1Cl)C(=O)CC2` gave an ED30 of 0.7 mg/kg.

`CCc1csc(Sc2cc3c(cc2NS(C)(=O)=O)COC3=O)n1` yielded an ED30 of 0.16 mg/kg.

A further assay concerns the target T1, Prostaglandin G/H synthase 2 (Homo sapiens, UniProt P35354).
T1 sequence (P35354 whole entry): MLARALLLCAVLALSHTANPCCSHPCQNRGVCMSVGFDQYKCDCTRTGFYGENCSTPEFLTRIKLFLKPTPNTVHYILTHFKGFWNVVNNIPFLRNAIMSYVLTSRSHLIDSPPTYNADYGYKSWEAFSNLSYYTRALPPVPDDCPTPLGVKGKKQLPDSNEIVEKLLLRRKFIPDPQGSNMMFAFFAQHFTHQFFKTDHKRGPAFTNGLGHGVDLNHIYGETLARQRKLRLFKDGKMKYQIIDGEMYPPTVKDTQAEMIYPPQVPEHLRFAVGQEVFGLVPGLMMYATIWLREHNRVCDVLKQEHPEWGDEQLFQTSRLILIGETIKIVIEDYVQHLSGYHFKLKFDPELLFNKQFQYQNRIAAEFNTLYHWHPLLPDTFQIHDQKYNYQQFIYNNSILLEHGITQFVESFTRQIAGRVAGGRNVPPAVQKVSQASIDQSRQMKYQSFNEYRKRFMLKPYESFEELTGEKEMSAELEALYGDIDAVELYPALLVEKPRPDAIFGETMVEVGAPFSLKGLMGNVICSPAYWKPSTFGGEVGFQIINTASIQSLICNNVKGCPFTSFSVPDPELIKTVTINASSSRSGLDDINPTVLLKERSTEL
The assay can be described thus: Inhibition of purified recombinant human Prostaglandin G/H synthase 2.
`Cc1csc(Sc2cc3c(cc2NS(C)(=O)=O)COC3=O)n1`: the concentration for half-maximal inhibition (IC50) was 6900 nM.

Take `Cc1cnc(Sc2cc3c(cc2NS(C)(=O)=O)CCC3=O)s1`: the IC50 worked out at 1500 nM.

As for `C=Cc1csc(Sc2cc3c(cc2NS(C)(=O)=O)COC3=O)n1`, the IC50 is 310 nM.

As for `Cc1ccc(Sc2cc3c(cc2NS(C)(=O)=O)CCC3=O)nc1`, the IC50 stood at 1000 nM.

Turning to `CS(=O)(=O)Nc1cc2c(cc1Sc1ncccc1Cl)C(=O)CC2`, the IC50 worked out at 520 nM.

As to `CS(=O)(=O)Nc1cc2c(cc1Sc1ccccn1)C(=O)CC2`, the IC50 came out at 810 nM.

Consider `CCc1csc(Sc2cc3c(cc2NS(C)(=O)=O)CCC3=O)n1`, for which the IC50 came out at 280 nM.

On to `CS(=O)(=O)Nc1cc2c(cc1Sc1nccs1)C(=O)CC2`, for which the IC50 came out at 480 nM.

On to `Cc1csc(Sc2cc3c(cc2NS(C)(=O)=O)CCC3=O)n1`, for which the IC50 turned out to be 380 nM.

With `CS(=O)(=O)Nc1cc2c(cc1Sc1ncc(Cl)cc1Cl)C(=O)CC2`, the IC50 is 360 nM.

In the case of `CS(=O)(=O)Nc1cc2c(cc1Sc1nccs1)C(=O)OC2`, the IC50 was 610 nM.

For `CSc1csc(Sc2cc3c(cc2NS(C)(=O)=O)COC3=O)n1`, the IC50 worked out at 290 nM.

As for `Cc1nc(Sc2cc3c(cc2NS(C)(=O)=O)CCC3=O)sc1C`, the IC50 is 1700 nM.

For the molecule `CCc1csc(Sc2cc3c(cc2NS(C)(=O)=O)COC3=O)n1`, the 50% inhibitory concentration (IC50) worked out at 1000 nM.

The next assay concerns Rattus norvegicus. Put plainly: In vivo antiinflammatory activity expressed as 50% effective dose was evaluated at 5 hr post dosing in rat pyresis model. The class given is functional.
Molecule `CCc1csc(Sc2cc3c(cc2NS(C)(=O)=O)CCC3=O)n1` gave an ED50 of 8.1 mg/kg.

Regarding `CCc1csc(Sc2cc3c(cc2NS(C)(=O)=O)COC3=O)n1`, the ED50 worked out at 2.7 mg/kg.

Another assay relates to Rattus norvegicus. The assay can be described thus: In vivo antiinflammatory activity expressed as percent inhibition after administration of 3 mg/kg was evaluated in rat paw edema assay. The class given is functional.
`CCc1csc(Sc2cc3c(cc2NS(C)(=O)=O)CCC3=O)n1` had an inhibition in vivo at 3 mg/kg of 43%.

Molecule `CCc1csc(Sc2cc3c(cc2NS(C)(=O)=O)COC3=O)n1` came in with an inhibition in vivo at 3 mg/kg of 65%.

A further assay addresses T1, Prostaglandin G/H synthase 2. The assay can be described thus: Inhibition of human Prostaglandin G/H synthase 2 expressed in CHO (chinese hamster ovary) cells. Type of assay: cell-based.
Turning to `Cc1csc(Sc2cc3c(cc2NS(C)(=O)=O)COC3=O)n1`, the IC50 was found to be 43 nM.

As for `Cc1cnc(Sc2cc3c(cc2NS(C)(=O)=O)CCC3=O)s1`, the half-inhibitory concentration (IC50) is 870 nM.

`C=Cc1csc(Sc2cc3c(cc2NS(C)(=O)=O)COC3=O)n1`: the IC50 turned out to be 140 nM.

For `Cc1ccc(Sc2cc3c(cc2NS(C)(=O)=O)CCC3=O)nc1`, half-maximal inhibition (IC50) required 640 nM.

For `CS(=O)(=O)Nc1cc2c(cc1Sc1ncccc1Cl)C(=O)CC2`, 220 nM corresponded to half-maximal inhibition (IC50).

Molecule `CS(=O)(=O)Nc1cc2c(cc1Sc1ccccn1)C(=O)CC2` gave an IC50 of 500 nM.

Molecule `CCc1csc(Sc2cc3c(cc2NS(C)(=O)=O)CCC3=O)n1` came in with an IC50 of 49 nM.

Consider `CS(=O)(=O)Nc1cc2c(cc1Sc1nccs1)C(=O)CC2`, for which half-maximal inhibition (IC50) was put at 320 nM.

In the case of `Cc1csc(Sc2cc3c(cc2NS(C)(=O)=O)CCC3=O)n1`, the IC50 was 30 nM.

`CS(=O)(=O)Nc1cc2c(cc1Sc1ncc(Cl)cc1Cl)C(=O)CC2` came in with an IC50 of 120 nM.

In turn, `CS(=O)(=O)Nc1cc2c(cc1Sc1nccs1)C(=O)OC2` gave a 50% inhibitory concentration (IC50) of 27 nM.

As for `CSc1csc(Sc2cc3c(cc2NS(C)(=O)=O)COC3=O)n1`, the IC50 worked out at 11000 nM.

The molecule `Cc1nc(Sc2cc3c(cc2NS(C)(=O)=O)CCC3=O)sc1C` returned an IC50 of more than 1800 nM.

The molecule `CCc1csc(Sc2cc3c(cc2NS(C)(=O)=O)COC3=O)n1` yielded an IC50 of 13 nM.

For the next assay, the system named is Rattus norvegicus. Put plainly: In vivo antiinflammatory activity expressed as 50% effective dose was evaluated in rat paw edema assay. Type of assay: functional.
In turn, `CCc1csc(Sc2cc3c(cc2NS(C)(=O)=O)COC3=O)n1` yielded an ED50 of 0.93 mg/kg.

The target in another assay is T2, Prostaglandin G/H synthase 1 (Homo sapiens, UniProt P23219). The assay can be described thus: Inhibition of purified recombinant human Prostaglandin G/H synthase 1.
T2 sequence (P23219 whole entry): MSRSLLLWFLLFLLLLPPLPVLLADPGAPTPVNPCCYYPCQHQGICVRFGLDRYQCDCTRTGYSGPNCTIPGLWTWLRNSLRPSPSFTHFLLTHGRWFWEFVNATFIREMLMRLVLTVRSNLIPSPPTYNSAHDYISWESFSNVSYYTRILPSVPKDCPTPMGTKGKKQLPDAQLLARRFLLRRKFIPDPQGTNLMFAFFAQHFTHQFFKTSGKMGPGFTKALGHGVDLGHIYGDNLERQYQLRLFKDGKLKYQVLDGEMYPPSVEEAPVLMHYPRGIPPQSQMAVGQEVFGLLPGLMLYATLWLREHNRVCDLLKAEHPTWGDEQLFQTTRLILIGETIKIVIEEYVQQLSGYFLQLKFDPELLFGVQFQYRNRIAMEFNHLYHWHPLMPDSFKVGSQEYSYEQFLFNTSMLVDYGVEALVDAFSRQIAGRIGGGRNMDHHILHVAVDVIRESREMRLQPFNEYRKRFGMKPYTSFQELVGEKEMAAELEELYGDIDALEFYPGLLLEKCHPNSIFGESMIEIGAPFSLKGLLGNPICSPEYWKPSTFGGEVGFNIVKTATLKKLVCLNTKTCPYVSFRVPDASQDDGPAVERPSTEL
Regarding `Cc1csc(Sc2cc3c(cc2NS(C)(=O)=O)COC3=O)n1`, the IC50 is more than 100000 nM.

In the case of `Cc1cnc(Sc2cc3c(cc2NS(C)(=O)=O)CCC3=O)s1`, the IC50 is more than 100000 nM.

For the molecule `C=Cc1csc(Sc2cc3c(cc2NS(C)(=O)=O)COC3=O)n1`, the IC50 was more than 100000 nM.

With `Cc1ccc(Sc2cc3c(cc2NS(C)(=O)=O)CCC3=O)nc1`, the IC50 is more than 100000 nM.

For the molecule `CS(=O)(=O)Nc1cc2c(cc1Sc1ncccc1Cl)C(=O)CC2`, the IC50 was more than 100000 nM.

With `CS(=O)(=O)Nc1cc2c(cc1Sc1ccccn1)C(=O)CC2`, the IC50 was more than 100000 nM.

In the case of `CS(=O)(=O)Nc1cc2c(cc1Sc1ccc(F)cc1F)C(=O)CC2`, the IC50 was more than 100000 nM.

For `CCc1csc(Sc2cc3c(cc2NS(C)(=O)=O)CCC3=O)n1`, the IC50 was approximately 100000 nM.

As to `CS(=O)(=O)Nc1cc2c(cc1Sc1nccs1)C(=O)CC2`, the IC50 was more than 100000 nM.

In the case of `Cc1csc(Sc2cc3c(cc2NS(C)(=O)=O)CCC3=O)n1`, the IC50 was more than 100000 nM.

For `CS(=O)(=O)Nc1cc2c(cc1Sc1ncc(Cl)cc1Cl)C(=O)CC2`, the 50% inhibitory concentration (IC50) is more than 100000 nM.

For the molecule `CS(=O)(=O)Nc1cc2c(cc1Sc1nccs1)C(=O)OC2`, the IC50 was more than 100000 nM.

Take `CSc1csc(Sc2cc3c(cc2NS(C)(=O)=O)COC3=O)n1`: the IC50 was more than 100000 nM.

Turning to `Cc1nc(Sc2cc3c(cc2NS(C)(=O)=O)CCC3=O)sc1C`, the IC50 is more than 100000 nM.

For `CCc1csc(Sc2cc3c(cc2NS(C)(=O)=O)COC3=O)n1`, the IC50 was more than 100000 nM.

The next assay concerns the target T2, Prostaglandin G/H synthase 1. Put plainly: Inhibition of Prostaglandin G/H synthase 1 activity in U937 microsomal assay. Type of assay: microsomes, Microsome.
In the case of `Cc1csc(Sc2cc3c(cc2NS(C)(=O)=O)COC3=O)n1`, the IC50 is 350 nM.

As to `Cc1cnc(Sc2cc3c(cc2NS(C)(=O)=O)CCC3=O)s1`, the IC50 was more than 100000 nM.

With `C=Cc1csc(Sc2cc3c(cc2NS(C)(=O)=O)COC3=O)n1`, half-maximal inhibition (IC50) was put at 12000 nM.

Take `Cc1ccc(Sc2cc3c(cc2NS(C)(=O)=O)CCC3=O)nc1`: the IC50 was more than 100000 nM.

Molecule `CS(=O)(=O)Nc1cc2c(cc1Sc1ncccc1Cl)C(=O)CC2` registered an IC50 of 6100 nM.

`CS(=O)(=O)Nc1cc2c(cc1Sc1ccccn1)C(=O)CC2`: the IC50 was more than 30000 nM.

The molecule `CS(=O)(=O)Nc1cc2c(cc1Sc1ccc(F)cc1F)C(=O)CC2` gave an IC50 of 1600 nM.

`CCc1csc(Sc2cc3c(cc2NS(C)(=O)=O)CCC3=O)n1` yielded an IC50 of 14000 nM.

In turn, `CS(=O)(=O)Nc1cc2c(cc1Sc1nccs1)C(=O)CC2` displayed an IC50 of 13000 nM.

The molecule `Cc1csc(Sc2cc3c(cc2NS(C)(=O)=O)CCC3=O)n1` came in with an IC50 of 620 nM.

Consider `CS(=O)(=O)Nc1cc2c(cc1Sc1ncc(Cl)cc1Cl)C(=O)CC2`, for which the IC50 was found to be 4900 nM.

Take `CS(=O)(=O)Nc1cc2c(cc1Sc1nccs1)C(=O)OC2`: the IC50 came out at 1300 nM.

Take `CSc1csc(Sc2cc3c(cc2NS(C)(=O)=O)COC3=O)n1`: the IC50 turned out to be 9300 nM.

The molecule `Cc1nc(Sc2cc3c(cc2NS(C)(=O)=O)CCC3=O)sc1C` displayed an IC50 of more than 100000 nM.

Take `CCc1csc(Sc2cc3c(cc2NS(C)(=O)=O)COC3=O)n1`: the midpoint of inhibition, the IC50, lay at 6300 nM.
